In publication PMC5045412, “Inhibition of pro-HGF activation by SRI31215, a novel approach to block oncogenic HGF/MET signaling” (Oncotarget, 2016):

How the values were obtained:
Assay type in all cases: cell-based
DiFi cells = DiFi cells co-cultured with WI38 fibroblasts, immunoblotting; conditions: gefitinib 0.5 μM, WI38 co-culture, SRI 31215 10 μM, JNJ38877605 1 μM
Procedure: Figure 7 Fibroblasts protect DiFi cells from EGFRi in an HGF-dependent manner DiFi cells were treated with gefitinib (0.5 μM) alone or were co-cultured with WI38 fibroblasts (FIB) in the absence or the presence of SRI 31215 (10 μM) or JNJ38877605 (1 μM). The DiFi cell lysates were isolated after 4 or 24 hours as indicated and examined for the expression of pERK and total ERK, pEGFR and total EGFR, cleaved PARP, β-catenin gelsolin and β-actin by immunoblotting.
(§1) Immunoblotting was performed using standard procedures. Membranes were blocked with 5% non-fat milk for 1 hour at RT, and incubated with primary antibodies overnight at 4°C. Primary antibodies used were anti-HGF (R&D Systems), anti-MET, anti-p-MET, anti-p-GAB1, anti-p-AKT, anti-p-ERK1/2, anti-vimentin (Cell Signaling Technology), anti-p-STAT3 (Upstate Cell Signaling Solutions), anti-E-cadherin (BD Transduction Laboratories), anti-β-actin (Sigma). Following washing with TBS-T buffer, membranes were incubated with horseradish peroxidase-conjugated secondary antibodies for 1 hour and then washed with TBS-T. Immunoblots were developed using the chemiluminescent detection system with ECL (Amersham). Protein loading was normalized by probing blots for the expression of β-actin.

RKO cells = assay: Clonogenic growth and viability of HGF-producing RKO cells with EGFR inhibitors; conditions: SRI 31215 10 μM, JNJ 38877605 1 μM; for sensitization to gefitinib: HGF-producing RKO cells; for clonogenic growth, agent alone / clonogenic growth, combination with cetuximab: RKO cells, HAI-1 20 nM; for clonogenic growth, combination with cetuximab: cetuximab 50 μg/ml
Procedure: Figure 5 Inhibitors of HGF/MET signaling prevent the innate and acquired resistance to cetuximab A. and B. RKO cells were treated with cetuximab (50 μg/ml) (A) of gefitinib (B) alone, or in combination with SRI 31215 (10 μM), JNJ 38877605 (1 μM) or recombinant HAI-1 (20 nM) as indicated and clonogenic growth was monitored as described in Materials and Methods. C. and D. Caco2 cells were treated with cetuximab or gefitinib alone or in the presence of CM from fibroblasts and SRI 31215 (10 μM) or JNJ 38877605 (1 μM) as indicated. #: p<0.05, compared to control (CTRL); NS: not significant.
Cell titer-glo luminescent cell viability assay kit was purchased from Promega. […] For clonogenic assay, cells were seeded in 6-well plates at a density of 400 cells per well, serum starved overnight, and treated as indicated. After colony formation (8-12 days), cells were stained with crystal violet and the number of colonies was determined using ImageQuantTL (GE Health Care Life Sciences).
Supplementary Figure S3: Inhibition of HGF/MET signaling sensitizes HGF-producing RKO colon cancer cells to gefitinib. A. RKO cells (HGF+) and B. HT29 (HGF-) cells were treated with gefitinib (5 μM) in the absence or the presence of SRI 31215 (10 μM) or JNJ 38877605 (1 μM) as indicated and viability was determined 24 and 72 hours after treatment. # indicates statistical significance compared to samples treated with gefitinib alone as determined by Students’ t-test (p<0.05).
(also on this page, place not known: www.impactjournals.com/oncotarget/ Oncotarget, Materials 2016 Supplementary (HGF +) (HGF -)) […]

DU145 cells [1] = assay: Scratch assay and transwell migration assay; conditions: SRI 31215 10 μM, JNJ 38877605 1 μM; for fibroblast-induced migration: 18Co or WI38 conditioned media
Procedure: Cancer cells were seeded in 12-well plates and allowed to reach confluence. Following overnight serum-starvation, a scratch/wound was introduced into the cell monolayer with a sterile tip. Cells were cultured in serum-free media or were treated with recombinant HGF (10 ng/ml) or serum-free conditioned media from fibroblasts (50%) in the presence or absence of SRI 31215 or JNJ 38877605. Images of migrating cells were captured at 0, 12 and 24 hours after the treatment.
Cytoselect cell migration assay kit was purchased from Cell Biolabs, Inc and the assay was performed according to the manufacturer's instructions. Briefly, DU145 cells (75×10^3) were seeded in transwells ([…] inserts) in serum-free media and were stimulated with recombinant HGF or with conditioned media from 18Co or WI38 fibroblasts (in the absence or the presence of SRI 31215 or JNJ 38877605). Cells were incubated for 12 hours and non-migratory cells were gently removed from inside of the inserts. Inserts were stained for 10 minutes at room temperature, transferred to wells containing 200 μl of extraction buffer and incubated for 10 minutes on a shaker. The optical density (OD) was measured at 560 nm.

DU145 cells [2] = assay: EMT markers E-cadherin and vimentin (immunofluorescence, immunoblotting); conditions: 24 hours, SRI 31215 10 μM, JNJ 38877605 1 μM; for fibroblast-induced expression of vimentin / fibroblast-induced inhibition of E-cadherin: 18Co conditioned media
Procedure: Figure 3 SRI 31215 inhibits fibroblast-induced EMT in DU145 cells Cells were stimulated with HGF or 18Co conditioned media for 24 hours in the absence or presence of SRI 31215 (10 μM) or JNJ 38877605 (1 μM) as indicated. The expression of E-cadherin was monitored by immunofluorescence A. The levels of E-cadherin and vimentin were also determined by immunoblotting B.
as §1
Cells were seeded at 1×10^3 cells per well in chamber slides. Following overnight serum-starvation, cells were treated with recombinant HGF (10 ng/ml) or conditioned media prepared from fibroblasts (50%) in the presence or absence of SRI 31215 (10 μM) or JNJ 38877605 (1 μM) for 24 hours. Cells were washed with PBS, fixed in ice-cold methanol/acetic acid solution [95:5 (v/v)] for 20 minutes at-20°C and incubated with anti-E-cadherin antibodies overnight at 4°C. Slides were washed with PBS, incubated with Alexa Fluor 568 conjugated secondary antibody for 1 hour at 37°C and examined with a fluorescent microscope.

| SMILES | gefitinib-induced cleavage of PARP in the presence of fibroblasts (DiFi cells) | prosurvival activity of fibroblasts (EGFR and ERK phosphorylation under gefitinib) (DiFi cells) | sensitization to gefitinib (RKO cells) | clonogenic growth, agent alone (RKO cells) | clonogenic growth, combination with cetuximab (RKO cells) | fibroblast-induced migration (DU145 cells [1]) | HGF-induced migration (DU145 cells [1]) | fibroblast-induced expression of vimentin (DU145 cells [2]) | fibroblast-induced inhibition of E-cadherin (DU145 cells [2]) | expression of E-cadherin in HGF-treated cells (DU145 cells [2]) |
| --- | --- | --- | --- | --- | --- | --- | --- | --- | --- | --- |
| Cn1cc(-c2ccc3nnc(C(F)(F)c4ccc5ncccc5c4)n3n2)cn1 [JNJ 38877605, reference compound] | restored | blocked | sensitized | did not impact | significant decrease | completely prevented | completely prevented | prevented | prevented | restored |
| CC1CN(CC2CCN(Cc3ccccc3)CC2)C(=O)N(c2cccc(C(=N)N)c2)C1 (stereo not shown) [SRI 31215, 3-(3-((1-benzylpiperidin-4-yl)methyl)-5-methyl-2-oxotetrahydropyrimidin-1(2H)-yl)benzimidamide] | restored | blocked | sensitized | did not impact | significant decrease | inhibited | did not interfere | prevented | prevented |  |
